Measured values: PubChem BioAssay (NCI)
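All cell lines were grown in 96-well plates and treated with compound for 48 hours. TGI denotes the concentration required for complete inhibition of growth.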

What was measured:
Assay in all cases: NCI tumour cell line growth inhibition, 48 h
[1] = tested on: SN12K1 renal
[2] = tested on: NCI/ADR-RES ovarian
[3] = tested on: HOP-18 NSCLC
[4] = tested on: P388 leukemia
[5] = tested on: P388/ADR leukemia
[6] = tested on: KM20L2 colon
[7] = tested on: MDA-MB-231 breast
[8] = tested on: PC-3 prostate
[9] = tested on: MDA-MB-435
[10] = tested on: LXFL 529 NSCLC
[11] = tested on: RXF-631 renal

Structure (SMILES) | TGI [1] | TGI [2] | TGI [3] | TGI [4] | TGI [5] | TGI [6] | TGI [7] | TGI [8] | TGI [9] | TGI [10] | TGI [11]
CCCCCCSc1nc(N)nc2nc[nH]c12 | > 100 µM | > 100 µM | > 72.6 µM | > 68 µM | 44.4 µM | > 100 µM | – | – | – | – | –
CCN1c2ccccc2NC(=S)c2c1n[nH]c2-c1ccccc1 | – | 60.9 µM | – | – | – | – | 61.8 µM | 84.6 µM | 52.5 µM | – | –
O=C1CC(/C=C/c2ccco2)=C(O)C1=O | – | > 100 µM | – | – | – | – | 35.2 µM | 25.4 µM | 35.3 µM | – | –
CN(C)C(=O)Oc1c(Br)cc(Br)cc1C(=O)OCc1ccccc1 | > 88.2 µM | 51.8 µM | 96.9 µM | 43 µM | 41.6 µM | 57.7 µM | – | – | – | – | –
CC1(C)OC[C@H](C(=N)OCc2ccccc2)O1 | – | – | – | – | – | > 100 µM | – | – | – | > 100 µM | –
CCOC(=O)c1nc2ccc(OC)cc2c2c1Cc1ccccc1-2 | – | – | – | – | – | > 100 µM | – | – | – | > 100 µM | > 100 µM
C/C(=N\Nc1nc2cc(Cl)ccc2s1)c1ccccn1 | – | – | – | – | – | – | 7.41 µM | > 35.2 µM | > 42 µM | – | –
COC1/C=C/C=C(/C)Cc2cc(O)c(Cl)c(c2)N(C)C(=O)CC(OC(=O)C(C)C)C2(C)OC2C(C)C2CC1(O)NC(=O)O2 (stereo unspecified) | – | – | – | – | – | – | > 42.3 µM | > 100 µM | > 100 µM | – | –
